The text below walks through data of US4652566A, “Benzofuran derivatives, processes for preparing the same and antihypertensive agents containing the same” (Kaken Pharmaceutical Co., Ltd., priority 1984, dated 1987).

Each structure is given as a SMILES string. Counter-ions that a name gives are not always drawn.

The target of data set [1] is T1, calcium antagonism (thoracic aorta spiral specimen, contraction by calcium) (Cavia porcellus, UniProt O35505).
T1 construct: from tissue; host or cells: thoracic aorta spiral strip of male Hartley guinea pig
T1 sequence (O35505 whole entry): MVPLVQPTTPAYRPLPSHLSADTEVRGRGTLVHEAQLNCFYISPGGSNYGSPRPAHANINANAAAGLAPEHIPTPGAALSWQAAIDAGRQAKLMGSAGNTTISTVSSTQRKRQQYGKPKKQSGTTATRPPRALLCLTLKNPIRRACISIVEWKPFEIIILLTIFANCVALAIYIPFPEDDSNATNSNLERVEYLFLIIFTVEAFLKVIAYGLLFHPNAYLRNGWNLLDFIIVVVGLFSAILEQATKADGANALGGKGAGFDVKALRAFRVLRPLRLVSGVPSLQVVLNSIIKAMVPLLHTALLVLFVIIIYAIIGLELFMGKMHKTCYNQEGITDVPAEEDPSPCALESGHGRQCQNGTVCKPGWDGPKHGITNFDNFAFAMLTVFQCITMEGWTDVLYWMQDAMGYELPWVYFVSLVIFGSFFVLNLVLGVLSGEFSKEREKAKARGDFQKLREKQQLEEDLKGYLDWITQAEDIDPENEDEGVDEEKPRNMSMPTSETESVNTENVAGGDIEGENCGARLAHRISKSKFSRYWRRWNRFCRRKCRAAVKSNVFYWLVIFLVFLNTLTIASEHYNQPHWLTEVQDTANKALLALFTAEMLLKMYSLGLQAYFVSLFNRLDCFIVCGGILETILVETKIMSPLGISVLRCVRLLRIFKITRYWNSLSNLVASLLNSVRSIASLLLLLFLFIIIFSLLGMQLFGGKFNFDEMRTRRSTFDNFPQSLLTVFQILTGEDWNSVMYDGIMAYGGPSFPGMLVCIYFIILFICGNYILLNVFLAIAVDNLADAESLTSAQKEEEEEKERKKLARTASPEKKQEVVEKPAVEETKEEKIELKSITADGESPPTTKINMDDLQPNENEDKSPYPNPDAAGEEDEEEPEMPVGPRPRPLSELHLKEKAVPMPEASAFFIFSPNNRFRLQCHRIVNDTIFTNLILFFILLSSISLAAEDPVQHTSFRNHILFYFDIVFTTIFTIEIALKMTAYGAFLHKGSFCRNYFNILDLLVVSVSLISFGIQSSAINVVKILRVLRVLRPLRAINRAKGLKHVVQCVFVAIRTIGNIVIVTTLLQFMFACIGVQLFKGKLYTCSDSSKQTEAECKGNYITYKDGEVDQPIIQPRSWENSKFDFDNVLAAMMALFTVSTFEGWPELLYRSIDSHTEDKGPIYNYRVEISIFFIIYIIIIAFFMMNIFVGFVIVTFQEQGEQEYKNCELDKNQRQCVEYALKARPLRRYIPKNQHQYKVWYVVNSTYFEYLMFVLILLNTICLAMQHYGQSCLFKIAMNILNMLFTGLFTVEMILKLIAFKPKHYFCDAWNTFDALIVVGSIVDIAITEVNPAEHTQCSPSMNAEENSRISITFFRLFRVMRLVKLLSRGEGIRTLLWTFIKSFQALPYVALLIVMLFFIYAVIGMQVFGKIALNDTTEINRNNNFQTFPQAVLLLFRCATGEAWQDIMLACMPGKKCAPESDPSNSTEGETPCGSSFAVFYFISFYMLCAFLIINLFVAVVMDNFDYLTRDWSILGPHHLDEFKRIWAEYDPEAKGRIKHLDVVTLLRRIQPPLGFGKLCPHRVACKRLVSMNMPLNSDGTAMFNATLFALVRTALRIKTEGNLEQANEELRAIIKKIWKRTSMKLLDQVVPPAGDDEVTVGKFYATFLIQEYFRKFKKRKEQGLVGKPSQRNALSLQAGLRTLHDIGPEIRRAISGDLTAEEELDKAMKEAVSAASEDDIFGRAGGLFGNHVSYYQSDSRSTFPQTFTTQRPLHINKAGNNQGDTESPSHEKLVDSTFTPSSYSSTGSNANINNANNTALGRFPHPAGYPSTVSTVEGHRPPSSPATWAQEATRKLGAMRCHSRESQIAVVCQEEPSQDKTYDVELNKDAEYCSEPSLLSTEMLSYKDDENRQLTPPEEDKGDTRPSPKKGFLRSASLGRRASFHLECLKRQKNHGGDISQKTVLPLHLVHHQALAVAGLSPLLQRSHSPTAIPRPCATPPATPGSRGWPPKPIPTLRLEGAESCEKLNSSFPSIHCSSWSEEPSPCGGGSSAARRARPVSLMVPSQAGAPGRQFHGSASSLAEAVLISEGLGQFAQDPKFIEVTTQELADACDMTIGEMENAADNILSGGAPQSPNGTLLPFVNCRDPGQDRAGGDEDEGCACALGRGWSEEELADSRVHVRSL
In words: Calcium antagonistic effect (contraction response by calcium of spiral thoracic aorta specimen, Magnus method). Further details: species or system Hartly male giunea pig. As to conditions: guinea pig thoracic aorta; for Kb: antagonism of calcium contraction, read-out: Calcium antagonistic effect, pA2 value (converted). On the procedure: [Calcium antagonistic effect]
Using a spiral blood vessel specimen taken from a thoracic aorta of Hartly male giunea pig weighed 400 to 600 g, a contraction response by calcium was measured as a dose-response curve according to Magnus method and the antagonistic activity for each test compound was indicated as above-mentioned pA2 value.

Data set [2] concerns the target T2, α-adrenergic blockade (vas deferens specimen, contraction by noradrenalin) (Rattus norvegicus, UniProt P43140).
T2 construct: from tissue; host or cells: vas deferens of six-week-old male Wistar rat
T2 sequence (P43140 1-466): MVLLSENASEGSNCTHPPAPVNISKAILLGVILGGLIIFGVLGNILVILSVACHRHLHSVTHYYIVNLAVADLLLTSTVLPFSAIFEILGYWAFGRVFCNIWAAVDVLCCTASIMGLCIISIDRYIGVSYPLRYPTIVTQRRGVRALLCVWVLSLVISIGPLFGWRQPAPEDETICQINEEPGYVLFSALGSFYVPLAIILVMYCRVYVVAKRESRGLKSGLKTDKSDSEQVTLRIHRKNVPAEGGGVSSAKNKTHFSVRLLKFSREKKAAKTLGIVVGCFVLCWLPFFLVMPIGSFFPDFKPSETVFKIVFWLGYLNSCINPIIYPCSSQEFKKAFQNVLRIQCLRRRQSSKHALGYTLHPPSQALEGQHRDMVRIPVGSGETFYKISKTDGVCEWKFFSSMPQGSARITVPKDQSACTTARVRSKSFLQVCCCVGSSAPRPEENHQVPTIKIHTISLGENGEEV
The data set is described as follows: α-Adrenergic blockade effect (contraction response by noradrenalin of vas deferens specimen, Magnus method). Details: species or system Wister male rat. Conditions: for Kb: rat vas deferens, antagonism of noradrenalin contraction, pA2 = negative logarithm of antagonist dose shifting agonist curve two times, read-out: α-Adrenergic blockade effect, pA2 value (converted).

Data set [3] is described as follows: Increasing effect on a coronary blood flow (anesthetized dog). As to conditions: administered once into perfusion channel. It is filed as in vivo. On the procedure: [Increasing effect on a coronary blood flow]
Adult dog weighed 9 to 13 kg which was anesthetized intravenously with 30 mg/kg of pentobarbiturate was used for this experiment. The animal was cut open at a chest under a condition of an artificial respiration. After an intravenous injection of 1000 U/kg of heparin, a glass cannula was inserted into coronary ramus circumflexus by way of a left subclavina artery and a perfusion was carried out with blood introduced from a right carotid artery. A blood flow was measured by means of a electromagnetic flowmeter set up at a perfusion channel.
Each of test compounds was dissolved in a physiologic salt solution and the solution was administered once into a perfusion channel. An increase of a coronary blood flow was indicated as a percentage of an increasing rate.
For the purpose of a comparison, the same experiment as mentioned above was carried out on Papavelin which was commonly used as coronary vasodilator.

The nature of data set [4]: Accute toxicity test (LD50 value). As to conditions: mouse, in vivo; mice; single oral administration; deaths by seventh day; Litchfield-Wilcoxon. The method, then:
[Accute toxicity test (LD50 value)]
The experiment was carried out using six weeks old ddy male mice.
Each of test compounds was suspended in an aqueous solution containing 5% by weight of acasia and the suspension was administered compulsorily once orally with a gastric probe. Within six hours after the start of the administration, the behavior of tested mice were observed consecutively. Thereafter, the observation was made at an interval of twenty four hours during 7 days and an accumulative number of deaths seventh day since the start of the administration was measured.
LD50 value was calculated according to the Litchfield-Wilcoxon method.

A short description of data set [5]: Antihypertensive effect and effect on heart rate in spontaneously hypertensive rat (SHR). It is filed as in vivo. Conditions: po, single dose. The method, then: [Antihypertensive effect and effect on a heart rate on rat suffering from a spontaneously hypertensive rat (SHR)]
A blood pressure was measured under no anesthetic condition by means of an apparatus for recording a blood pressure of a tail artery and a heart rate (Riken Kaihatsu Co., Ltd.) (PS-802) and at the same time a heart rate was also measured.
Each of test compounds was dissolved or suspended in an aqueous solution containing 5% by weight of acasia and the obtained solution or suspension was administered once orally to SHR which had been kept under a fast condition for one night. A blood pressure and a heart rate were measured before administration and after one hour, three hours, five hours and seven hours of it and the maximum value of changes were calculated by comparing the value measured before administration with the value measured after administration.
For the purpose of a comparison, the same experiment as mentioned above was carried out on both Labetalol and Diltiazem as mentioned above.
With respect to a dosage, 100 mg/kg and 10 mg/kg as to compounds obtained by Examples 2, 5, 6, 9 and 18 to 23 were respectively administered, 100 mg/kg as to compounds obtained by Examples 1, 3, 4, 7 and 10 to 17 was respectively administered.

Where [6] appears, read: 100 mg/kg, maximum over 1, 3, 5, 7 hours (Table 3).
[7] abbreviates: 10 mg/kg, maximum over 1, 3, 5, 7 hours (Table 2).
Where [8] appears, read: 100 mg/kg, maximum over 1, 3, 5, 7 hours (Table 2).

`COc1ccccc1N1CCN(CC(O)COc2cccc3cc(C(C)=O)oc23)CC1` (stereo not drawn) [Ex. 2 (HCl salt), 2-acetyl-7-{2-hydroxy-3-[4-(2-methoxyphenyl)piperazinyl]-propoxy}benzofuran]: the Kb is 195 nM in data set [1] and 38.9 nM in data set [2]. Also, the “Increasing rated of coronary blood flow when administered with a 1 mg” value (“Increasing rated of coronary blood flow” for short) in data set [3] turned out to be 88.4 ± 14.2%.
Usually LD50 stands for the dose expected to kill half of the subjects tested. The low end stands for a more toxic substance, the high end for a less toxic substance. As to `COc1ccc(N2CCN(CC(O)COc3cccc4cc(C(C)=O)oc34)CC2)cc1` (stereo not drawn) [Ex. 3 (HCl salt), 2-acetyl-7-{2-hydroxy-3-[4-(4-methoxyphenyl)piperazinyl]-propoxy}benzofuran], the median lethal dose (LD50) at 168 h in data set [4] amounted to 700 mg/kg. Besides, the Kb in data set [1] was 631 nM. In addition, in data set [2], the Kb was 457 nM. Besides, in data set [5] (setting [6]), the “Maximum value of change, heart rate” value is recorded as -200.0 ± 28.4 beats/min and the “Maximum value of change, systolic pressure” value was -22.9 ± 1.7 mmHg.
On the same counts, the results for `COc1ccccc1N1CCN(CC(O)COc2ccc3cc(C(C)=O)oc3c2)CC1` (stereo not drawn) [Ex. 4 (HCl salt), 2-acetyl-6-{2-hydroxy-3-[4-(2-methoxyphenyl)piperazinyl]-propoxy}benzofuran] are greater than 1000 mg/kg, 525 nM, 22.4 nM, -172.5 ± 23.9 beats/min and -114.2 ± 1.7 mmHg.
For the compound `COc1ccccc1N1CCN(CC(O)COc2ccc3oc(C(C)=O)cc3c2)CC1` (stereo not drawn) [Ex. 5 (HCl salt)], the median lethal dose (LD50) at 168 h in data set [4] is greater than 1500 mg/kg. In addition, the “Calcium antagonistic effect, relative ratio as compared with Diltiazem” value in data set [1] (Diltiazem = 1.0) worked out at 1.9. Also, the Kb in data set [1] was 46.8 nM; in data set [2] it was 49 nM. Besides, the “α-Adrenergic blockade effect, relative ratio as compared with Phentolamine” value in data set [2] is 3.2. In data set [3], the “Increasing rated of coronary blood flow” value amounted to 107.5 ± 6.5%.
As for `CC(=O)c1cc2cccc(OCC(O)CN3CCN(c4cccc(Cl)c4)CC3)c2o1` (stereo not drawn) [Ex. 8 (HCl salt), 2-acetyl-7-{3-[4-(3-chlorophenyl)piperazinyl]-2-hydroxypropoxy}benzofuran], the 50% lethal dose (LD50) at 168 h in data set [4] is greater than 1000 mg/kg. Moreover, the Kb in data set [1] is 85.1 nM. Moreover, the Kb in data set [2] was 468 nM. Also, in data set [5] (setting [6]), the “Maximum value of change, heart rate” value is -98.4 ± 17.2 beats/min and the “Maximum value of change, systolic pressure” value is recorded as -44.2 ± 8.4 mmHg. For the same compound, the “Increasing rated of coronary blood flow” value in data set [3] worked out at 96.3 ± 13.1%.
Turning to `COc1ccc(N2CCN(CC(O)COc3cccc4cc(C(N)=O)oc34)CC2)cc1` (stereo not drawn) [Ex. 10, 2-carbamoyl-7-{2-hydroxy-3-[4-(4-methoxyphenyl)piperazinyl]porpoxy,}benzofuran], the LD50 at 168 h in data set [4] is 1100 mg/kg. Besides, the Kb in data set [1] was 1260 nM. Besides, in data set [2], the “α-Adrenergic blockade effect, relative ratio as compared with Phentolamine” value came to 1.8 and the Kb was 87.1 nM. Further, in data set [5] (setting [6]), the “Maximum value of change, heart rate” value is given as -80.0 ± 37.6 beats/min and the “Maximum value of change, systolic pressure” value is -97.9 ± 4.0 mmHg.
`COc1ccccc1N1CCN(CC(O)COc2ccc3cc(C(N)=O)oc3c2)CC1` (stereo not drawn) [Ex. 11, 2-carbamoyl-6-{2-hydroxy-3-[4-(2-methoxyphenyl)piperazinyl]propoxy}benzofuran] displayed an LD50 at 168 h in data set [4] greater than 1500 mg/kg. The Kb in data set [1] was 158 nM. Besides, in data set [2], the Kb is 57.5 nM. Moreover, in data set [5] (setting [6]), the “Maximum value of change, heart rate” value is -126.5 ± 27.3 beats/min and the “Maximum value of change, systolic pressure” value is recorded as -78.8 ± 7.6 mmHg.
`COc1ccccc1N1CCN(CC(O)COc2ccc3oc(C(N)=O)cc3c2)CC1` (stereo not drawn) [Ex. 12] came in with a median lethal dose (LD50) at 168 h in data set [4] greater than 1500 mg/kg. Further, the Kb in data set [1] is 1170 nM. Further, in data set [2], the “α-Adrenergic blockade effect, relative ratio as compared with Phentolamine” value worked out at 1.6 and the Kb was 100 nM. Besides, in data set [5] (setting [6]), the “Maximum value of change, heart rate” value is reported as -110.0 ± 20.0 beats/min and the “Maximum value of change, systolic pressure” value is listed as -100.2 ± 3.9 mmHg.
Consider `Cc1ccccc1N1CCN(CC(O)COc2cccc3cc(C(N)=O)oc23)CC1` (stereo not drawn) [Ex. 13, 2-carbamoyl-7-{2-hydroxy-3-[4-(2-methylphenyl)piperazinyl]propoxy}benzofuran], for which, in data set [4], the LD50 at 168 h was greater than 1500 mg/kg. In addition, in data set [1], the Kb was 1350 nM. Moreover, the Kb in data set [2] was 240 nM. In addition, in data set [5] (setting [6]), the “Maximum value of change, heart rate” value is -80.0 ± 16.6 beats/min and the “Maximum value of change, systolic pressure” value is given as -97.0 ± 9.8 mmHg.
In the same order, the values of `Cc1ccccc1N1CCN(CC(O)COc2ccc3cc(C(N)=O)oc3c2)CC1` (stereo not drawn) [Ex. 14, 2-carbamoyl-6-{2-hydroxy-3-[4-(2-methylphenyl)piperazinyl]-propoxy}benzofuran] are greater than 1000 mg/kg, 182 nM, 110 nM, -132.9 ± 28.8 beats/min and -67.3 ± 6.8 mmHg.
In the same order, the values of `NC(=O)c1cc2cccc(OCC(O)CN3CCN(c4cccc(Cl)c4)CC3)c2o1` (stereo not drawn) [Ex. 15] are greater than 1000 mg/kg, 398 nM, 3020 nM, -100.0 ± 19.5 beats/min and -79.9 ± 11.9 mmHg.
In the same order, the values of `COc1ccccc1N1CCN(CC(O)COc2cccc3cc(C#N)oc23)CC1` (stereo not drawn) [Ex. 16 (HCl salt), 2-cyano-7-{2-hydroxy-3-[4-(2-methoxyphenyl)piperazinyl]-propoxy} benzofuran] are 900 mg/kg, 513 nM, 42.7 nM, -189.6 ± 26.8 beats/min and -13.3 ± 4.6 mmHg.
In data set [4], `COc1ccccc1N1CCN(CC(O)COc2ccc3cc(C#N)oc3c2)CC1` (stereo not drawn) [Ex. 17 (HCl salt), 2-cyano-6-{2-hydroxy-3-[4-(2-methoxyphenyl)piperazinyl]propoxy}benzofuran] returned a 50% lethal dose (LD50) at 168 h of 900 mg/kg. Besides, the figures for the Kb in data set [1] and in data set [2] were 115 nM and 204 nM, respectively. In data set [5] (setting [6]), the “Maximum value of change, heart rate” value is -154.5 ± 21.1 beats/min. Also, the “Maximum value of change, systolic pressure” value in data set [5] (setting [6]) is listed as -40.5 ± 6.6 mmHg.
As for `Cc1ccccc1N1CCN(CC(O)COc2cccc3cc(C(C)O)oc23)CC1` (stereo not drawn) [Ex. 23, 2-(1-hydroxyethyl)-7-{2-hydroxy-3-[4-(2-methylphenyl)piperazinyl]propoxy}benzofuran], the 50% lethal dose (LD50) at 168 h in data set [4] is greater than 1000 mg/kg. The Kb in data set [1] is 589 nM; in data set [2], 77.6 nM. Besides, the “Maximum value of change, heart rate” value in data set [5] (setting [7]) was -93.4 ± 17.6 beats/min; in data set [5] (setting [8]) it was -131.4 ± 22.3 beats/min. Further, the figures for the “Maximum value of change, systolic pressure” value in data set [5] (setting [7]) and in data set [5] (setting [8]) were -54.9 ± 9.4 mmHg and -73.1 ± 9.2 mmHg, respectively.
For `COc1ccc(Cc2nccc3cc(OC)c(OC)cc23)cc1OC` [papavelin, Papavelin, reference compound], the “Increasing rated of coronary blood flow” value in data set [3] came out at 136.3 ± 27.0%.
